Drawing on ChEMBL document CHEMBL3044960, “Evaluation of fungicide applications to sweet orange at different flowering stages for control of postbloom fruit drop caused by Colletotrichum acutatum” (2008), this text covers Activity for 2 compounds.

Active and inactive are the calls of the source. The rule behind the calls is not given here.

The subject of experiment [1] is Colletotrichum acutatum. As to the kind of experiment: Fungicidal activity against Colletotrichum acutatum infested Citrus sinensis assessed as increase in fruit set at 1.25 g/l applied through airblast sprayer during white bud and hollow ball flower stages measured after 70 days relative to control. Format: functional, organism-based.
Experiment [2] has as its system Colletotrichum acutatum. Briefly: Fungicidal activity against Colletotrichum acutatum infested Citrus sinensis assessed as reduction in number of symptomatic flowers at 1.25 g/l applied through airblast sprayer during green bud, white bud and hollow ball flower stages measured after 7 days. It is filed as functional, organism-based.
Experiment [3] deals with Colletotrichum acutatum. Briefly: Fungicidal activity against Colletotrichum acutatum infested Citrus sinensis assessed as reduction in persistant calyces at 1.25 g/l applied through airblast sprayer during green bud to white ball flower stages measured after 7 days. Format: functional, organism-based.
For experiment [4], the system named is Colletotrichum acutatum. Briefly: Fungicidal activity against Colletotrichum acutatum infested Citrus sinensis assessed as reduction in persistant calyces at 1 g/l applied through airblast sprayer during green bud to white ball flower stages measured after 7 days. It is filed as functional, organism-based.
The test system of experiment [5] is Colletotrichum acutatum. As to the kind of experiment: Fungicidal activity against Colletotrichum acutatum infested Citrus sinensis assessed as increase in fruit set percentage at 1.25 g/l applied through airblast sprayer during green bud to white ball flower stages measured after 70 days. Format: functional, organism-based.
Experiment [6] has as its system Colletotrichum acutatum. As to the kind of experiment: Fungicidal activity against Colletotrichum acutatum infested Citrus sinensis assessed as increase in fruit set percentage at 1 g/l applied through airblast sprayer during green bud to white ball flower stages measured after 70 days. It is filed as functional, organism-based.
Experiment [7] deals with Colletotrichum acutatum. Briefly: Fungicidal activity against Colletotrichum acutatum infested Citrus sinensis assessed as increase in fruit production per tree at 1.25 g/l applied through airblast sprayer during green bud to white ball flower stages measured after 70 days. Format: functional, organism-based.
Experiment [8] deals with Colletotrichum acutatum. Briefly: Fungicidal activity against Colletotrichum acutatum infested Citrus sinensis assessed as increase in fruit production per tree at 1 g/l applied through airblast sprayer during green bud to white ball flower stages measured after 70 days. Format: functional, organism-based.
Experiment [9] concerns Colletotrichum acutatum. Briefly: Fungicidal activity against Colletotrichum acutatum infested Citrus sinensis assessed as total fruit weight per plant at 1.25 g/l applied through airblast sprayer during white bud and hollow ball flower stages measured after 70 days (Rvb =49.88 kg). It is filed as functional.
Experiment [10] relates to Colletotrichum acutatum. Briefly: Fungicidal activity against Colletotrichum acutatum infested Citrus sinensis assessed as total fruit weight per plant at 1.25 g/l applied through airblast sprayer during green bud and hollow ball flower stages measured after 70 days (Rvb =49.88 kg). It is filed as functional.
In experiment [11] the test system is Colletotrichum acutatum. As to the kind of experiment: Fungicidal activity against Colletotrichum acutatum infested Citrus sinensis assessed as total fruit weight per plant at 1.25 g/l applied through airblast sprayer during open flower stage measured after 70 days (Rvb =49.88 kg). Format: functional.
The subject of experiment [12] is Colletotrichum acutatum. As to the kind of experiment: Fungicidal activity against Colletotrichum acutatum infested Citrus sinensis assessed as total fruit weight per plant at 1.25 g/l applied through airblast sprayer during hollow ball flower stage measured after 70 days (Rvb =49.88 kg). It is filed as functional.
Experiment [13] concerns Colletotrichum acutatum. As to the kind of experiment: Fungicidal activity against Colletotrichum acutatum infested Citrus sinensis assessed as total fruit weight per plant at 1.25 g/l applied through airblast sprayer during green bud until open flower stages measured after 70 days (Rvb =65.90 kg). Format: functional.
The subject of experiment [14] is Colletotrichum acutatum. As to the kind of experiment: Fungicidal activity against Colletotrichum acutatum infested Citrus sinensis assessed as total fruit weight per plant at 1.25 g/l applied through airblast sprayer during green bud, white bud and hollow ball flower stages measured after 70 days (Rvb =65.90 kg). It is filed as functional.
In experiment [15] the test system is Colletotrichum acutatum. Briefly: Fungicidal activity against Colletotrichum acutatum infested Citrus sinensis assessed as total fruit weight per plant at 1.25 g/l applied through airblast sprayer during green bud and white bud flower stages measured after 70 days (Rvb =65.90 kg). It is filed as functional.
Experiment [16] deals with Colletotrichum acutatum. As to the kind of experiment: Fungicidal activity against Colletotrichum acutatum infested Citrus sinensis assessed as total fruit weight per plant at 1.25 g/l applied through airblast sprayer during green bud flower stage measured after 70 days (Rvb =65.90 kg). Format: functional.
Experiment [17] concerns Colletotrichum acutatum. Briefly: Fungicidal activity against Colletotrichum acutatum infested Citrus sinensis assessed as increase in fruit set at 1.25 g/l applied through airblast sprayer during green bud, white bud and hollow ball flower stages measured after 70 days. Format: functional, organism-based.
Experiment [18] deals with Colletotrichum acutatum. Briefly: Fungicidal activity against Colletotrichum acutatum infested Citrus sinensis assessed as increase in fruit set at 1.25 g/l applied through airblast sprayer during open flower stage measured after 70 days. Format: functional, organism-based.
The subject of experiment [19] is Colletotrichum acutatum. Briefly: Fungicidal activity against Colletotrichum acutatum infested Citrus sinensis assessed as reduction in symptomatic flowers at 1.25 g/l applied through airblast sprayer during open flower stage measured after 7 days. It is filed as functional, organism-based.
The subject of experiment [20] is Colletotrichum acutatum. As to the kind of experiment: Fungicidal activity against Colletotrichum acutatum infested Citrus sinensis assessed as reduction in symptomatic flowers at 1.25 g/l applied through airblast sprayer during hollow ball flower stage measured after 7 days. It is filed as functional, organism-based.
The subject of experiment [21] is Colletotrichum acutatum. Briefly: Fungicidal activity against Colletotrichum acutatum infested Citrus sinensis assessed as reduction in symptomatic flowers at 1.25 g/l applied through airblast sprayer during white bud and hollow ball flower stages measured after 7 days. It is filed as functional, organism-based.
Experiment [22] relates to Colletotrichum acutatum. As to the kind of experiment: Fungicidal activity against Colletotrichum acutatum infested Citrus sinensis assessed as reduction in symptomatic flowers at 1.25 g/l applied through airblast sprayer during green bud and hollow ball flower stages measured after 7 days. It is filed as functional, organism-based.
In experiment [23] the test system is Colletotrichum acutatum. Briefly: Fungicidal activity against Colletotrichum acutatum infested Citrus sinensis assessed as total fruit weight per plant at 0.056 g/l applied through airblast sprayer during white bud and hollow ball flower stages measured after 70 days (Rvb =49.88 kg)s. It is filed as functional.
Experiment [24] concerns Colletotrichum acutatum. As to the kind of experiment: Fungicidal activity against Colletotrichum acutatum infested Citrus sinensis assessed as total fruit weight per plant at 0.056 g/l applied through airblast sprayer during green bud and hollow ball flower stages measured after 70 days (Rvb =49.88 kg). Format: functional.
Experiment [25] concerns Colletotrichum acutatum. As to the kind of experiment: Fungicidal activity against Colletotrichum acutatum infested Citrus sinensis assessed as total fruit weight per plant at 0.056 g/l applied through airblast sprayer during open flower stage measured after 70 days (Rvb =49.88 kg). Format: functional.
Experiment [26] concerns Colletotrichum acutatum. As to the kind of experiment: Fungicidal activity against Colletotrichum acutatum infested Citrus sinensis assessed as total fruit weight per plant at 0.056 g/l applied through airblast sprayer during hollow ball flower stage measured after 70 days (Rvb =49.88 kg). Format: functional.
Experiment [27] has as its system Colletotrichum acutatum. As to the kind of experiment: Fungicidal activity against Colletotrichum acutatum infested Citrus sinensis assessed as total fruit weight per plant at 0.056 g/l applied through airblast sprayer during green bud until open flower stages measured after 70 days (Rvb =65.90 kg). It is filed as functional.
The subject of experiment [28] is Colletotrichum acutatum. As to the kind of experiment: Fungicidal activity against Colletotrichum acutatum infested Citrus sinensis assessed as total fruit weight per plant at 0.056 g/l applied through airblast sprayer during green bud, white bud and hollow ball flower stages measured after 70 days (Rvb =65.90 kg). It is filed as functional.
Experiment [29] concerns Colletotrichum acutatum. Briefly: Fungicidal activity against Colletotrichum acutatum infested Citrus sinensis assessed as total fruit weight per plant at 0.056 g/l applied through airblast sprayer during green bud and white bud flower stages measured after 70 days (Rvb =65.90 kg). Format: functional.
Experiment [30] relates to Colletotrichum acutatum. Briefly: Fungicidal activity against Colletotrichum acutatum infested Citrus sinensis assessed as total fruit weight per plant at 0.056 g/l applied through airblast sprayer during green bud flower stage measured after 70 days (Rvb =65.90 kg). It is filed as functional.
Experiment [31] deals with Colletotrichum acutatum. As to the kind of experiment: Fungicidal activity against Colletotrichum acutatum infested Citrus sinensis assessed as increase in fruit set at 0.056 g/l applied through airblast sprayer during green bud and white bud flower stages measured after 70 days. Format: functional, organism-based.
Experiment [32] has as its system Colletotrichum acutatum. Briefly: Fungicidal activity against Colletotrichum acutatum infested Citrus sinensis assessed as increase in fruit set at 0.056 g/l applied through airblast sprayer during green bud flower stage measured after 70 days. It is filed as functional, organism-based.
Experiment [33] has as its system Colletotrichum acutatum. Briefly: Fungicidal activity against Colletotrichum acutatum infested Citrus sinensis assessed as reduction in number of symptomatic flowers at 0.056 g/l applied through airblast sprayer during green bud until open flower stages measured after 7 days. It is filed as functional, organism-based.
For experiment [34], the system named is Colletotrichum acutatum. As to the kind of experiment: Fungicidal activity against Colletotrichum acutatum infested Citrus sinensis assessed as reduction in number of symptomatic flowers at 0.056 g/l applied through airblast sprayer during green bud, white bud and hollow ball flower stages measured after 7 days. Format: functional, organism-based.
Experiment [35] concerns Colletotrichum acutatum. As to the kind of experiment: Fungicidal activity against Colletotrichum acutatum infested Citrus sinensis assessed as increase in fruit set at 0.056 g/l applied through airblast sprayer during green bud, white bud and hollow ball flower stages measured after 70 days. It is filed as functional, organism-based.
The test system of experiment [36] is Colletotrichum acutatum. Briefly: Fungicidal activity against Colletotrichum acutatum infested Citrus sinensis assessed as increase in fruit set at 0.056 g/l applied through airblast sprayer during open flower stage measured after 70 days. Format: functional, organism-based.
For experiment [37], the system named is Colletotrichum acutatum. As to the kind of experiment: Fungicidal activity against Colletotrichum acutatum infested Citrus sinensis assessed as reduction in symptomatic flowers at 0.056 g/l applied through airblast sprayer during open flower stage measured after 7 days. It is filed as functional, organism-based.
Experiment [38] has as its system Colletotrichum acutatum. Briefly: Fungicidal activity against Colletotrichum acutatum infested Citrus sinensis assessed as reduction in symptomatic flowers at 0.056 g/l applied through airblast sprayer during hollow ball flower stage measured after 7 days. Format: functional, organism-based.
For experiment [39], the system named is Colletotrichum acutatum. As to the kind of experiment: Fungicidal activity against Colletotrichum acutatum infested Citrus sinensis assessed as reduction in symptomatic flowers at 0.056 g/l applied through airblast sprayer during white bud and hollow ball flower stages measured after 7 days. Format: functional, organism-based.
The subject of experiment [40] is Colletotrichum acutatum. Briefly: Fungicidal activity against Colletotrichum acutatum infested Citrus sinensis assessed as reduction in symptomatic flowers at 0.056 g/l applied through airblast sprayer during green bud and hollow ball flower stages measured after 7 days. It is filed as functional, organism-based.
The test system of experiment [41] is Colletotrichum acutatum. Briefly: Fungicidal activity against Colletotrichum acutatum infested Citrus sinensis assessed as increase in fruit set at 0.056 g/l applied through airblast sprayer during green bud until open flower stages measured after 70 days. Format: functional, organism-based.

Consider `O=C1c2ccccc2C(=O)N1SC(Cl)(Cl)Cl` [FOLPET], for which the outcome in experiment [1], in experiment [2], in experiment [3], in experiment [4], in experiment [5] and in experiment [6] was Active. The result in experiment [7], in [8], in [17], in [20], in experiment [21] and in [22] was Active. Moreover, the Activity in experiment [9] worked out at 59.6 kg; in experiment [10], 46 kg; in experiment [11], 61.2 kg; in [12] it was 48.2 kg; in experiment [13], 86.9 kg; in [14], 87.7 kg. Moreover, the Activity in experiment [15] came to 53.5 kg; in [16], 48.7 kg. Also, the result in [18] and in experiment [19] was inactive.
With `CC1COC(Cn2cncn2)(c2ccc(Oc3ccc(Cl)cc3)cc2Cl)O1` (stereo unspecified) [DIFENOCONAZOLE], the Activity in [23] is 32.7 kg; in [24], 53.5 kg; in [25], 38 kg; in experiment [26], 71.4 kg; in experiment [27], 47.2 kg; in experiment [28], 53.9 kg. Besides, the Activity in experiment [29] was 38.7 kg; in experiment [30] it was 59.2 kg. The outcome in [31], in [32], in experiment [35], in experiment [36], in experiment [37] and in experiment [38] was inactive. For the same compound, the outcome in experiment [41] was inactive. Besides, the result in experiment [33], in experiment [34], in experiment [39] and in experiment [40] was Active.
